According to US20250032623A1, “HETEROBIFUNCTIONAL COMPOUNDS AND THEIR USE IN TREATING DISEASE” (HALDA THERAPEUTICS OPCO, INC., priority 2021, published 2025):

How the values were obtained:
HEK293 cells = experiment: Cellular growth inhibition assay (CellTiter-Glo), HEK293 cells; format: cell-based; conditions: Homo sapiens, 72 h, three days compound treatment, CellTiter-Glo 2.0, read-out: CTG HEK293 GI50
Method in brief: (§1)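 HEK293 or HeLa cells seeded at 500 cells/well in DMEM with 10% FBS, treated after 24 h with titrated compound for three days at 37 °C, 5% CO2. CellTiter-Glo 2.0 luminescence read on Day 0 and Day 3, normalized to DMSO, four-parameter fit giving GI50.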

HeLa cells = experiment: Cellular growth inhibition assay (CellTiter-Glo), HeLa cells; format: cell-based; conditions: Homo sapiens, 72 h, three days compound treatment, CellTiter-Glo 2.0, read-out: CTG HELA GI50
Method in brief: as §1

EGFR = target: T1, EGFR (Homo sapiens, UniProt P00533); experiment: KdELECT binding assay, EGFR
T1 construct: purchased
Method in brief: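 Competition binding: DNA- or T7 phage-tagged EGFR was incubated 1 h at room temperature with immobilized ligand beads and an 11-point 3-fold compound series (0.9% DMSO final). Bead-bound kinase was eluted and quantified by qPCR to derive Kd.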

[1] = target: T2, EGFR T790M, L858R (amino acids 669-1011 Accession Number NP_005219.2) (Homo sapiens, UniProt P00533, L858R/T790M); experiment: KdELECT binding assay (Eurofins Discovery), EGFR T790M, L858R; conditions: read-out: EGFR DM Kd
T2 construct: purchased Eurofins Discovery; host or cells: mammalian cells (HEK-293)
Method in brief: (§2)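 Competition binding: WT kinase as T7 phage fusion from E. coli, T790M/L858R produced in HEK-293 and DNA-tagged, incubated 1 h at room temperature with immobilized ligand beads and compound (11-point 3-fold series, 0.9% DMSO). Bead-bound kinase eluted and quantified by qPCR to derive Kd.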

[2] = target: T3, EGFR WT (amino acids 669-1011, Accession Number NP_005219.2) (Homo sapiens, UniProt P00533); experiment: KdELECT binding assay (Eurofins Discovery), EGFR WT
T3 construct: purchased Eurofins Discovery; host or cells: bacteria (E. coli, BL21-derived, T7 phage)
Method in brief: as §2

[3] = target: T4, full-length CDK9 (amino acids 1-372; Accession Number NP_001252.1) (Homo sapiens, UniProt P50750); experiment: KdELECT binding assay, CDK9
T4 construct: full-length CDK9 (amino acids 1-372); purchased; host or cells: bacteria (E. coli, BL21-derived, T7 phage)
Description: Exemplary compounds were tested for ability to bind to full-length CDK9 (amino acids 1-372; Accession Number NP_001252.1) expressed from bacteria. Compounds were tested using a KdELECT assay.
Kinase-tagged T7 phage strains were prepared in an E. coli host derived from the BL21 strain. E. coli were grown to log-phase and infected with T7 phage and incubated with shaking at 32° C. until lysis. The lysates were centrifuged and filtered to remove cell debris. The remaining kinases were produced in HEK-293 cells and subsequently tagged with DNA for qPCR detection. Streptavidin-coated magnetic beads were treated with biotinylated small molecule ligands for 30 minutes at room temperature to generate affinity resins for kinase assays. The liganded beads were blocked with excess biotin and washed with blocking buffer (SeaBlock (Pierce), 1% BSA, 0.05% Tween 20, 1 mM DTT) to remove unbound ligand and to reduce non-specific binding. Binding reactions were assembled by combining kinases, liganded affinity beads, and test compounds in 1× binding buffer (20% SeaBlock, 0.17×PBS, 0.05% Tween 20, 6 mM DTT). Test compounds were prepared as 111× stocks in 100% DMSO. Kd values were determined using an 11-point 3-fold compound dilution series with three DMSO control points. All compounds for Kd measurements are distributed by acoustic transfer (non-contact dispensing) in 100% DMSO. The compounds were then diluted directly into the assays such that the final concentration of DMSO was 0.9%. All reactions performed in polypropylene 384-well plate. Each was a final volume of 0.02 mL. The assay plates were incubated at room temperature with shaking for 1 hour and the affinity beads were washed with wash buffer (1×PBS, 0.05% Tween 20). The beads were then re-suspended in elution buffer (1×PBS, 0.05% Tween 20, 0.5 μM nonbiotinylated affinity ligand) and incubated at room temperature with shaking for 30 minutes. The kinase concentration in the eluates was measured by qPCR.

KRAS G12C = target: T5, KRAS G12C (Homo sapiens, UniProt P01116, G12C); experiment: KRAS G12C nucleotide exchange assay (SOS1 mediated, HTRF); format: biochemical; conditions: 1 hr pre-incubation at RT, read-out: IC50 (inhibition of KRas G12C)
T5 construct: Kras (aa 2-169), GST; purchased Reaction Biology Corporation (RBC)
Method in brief: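 HTRF nucleotide exchange using KRAS G12C mixed with anti-GST Tb antibody and pre-incubated with compound for 1 h at RT. Exchange was started with SOS1 plus labelled GTP. Compounds ran as 10-point, 3-fold dilutions from 10 μM, with no-SOS1 or top concentration as blank and IC50 from a variable-slope sigmoidal fit.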

T5 sequence (P01116 2-169 isoform P01116-2 G12C): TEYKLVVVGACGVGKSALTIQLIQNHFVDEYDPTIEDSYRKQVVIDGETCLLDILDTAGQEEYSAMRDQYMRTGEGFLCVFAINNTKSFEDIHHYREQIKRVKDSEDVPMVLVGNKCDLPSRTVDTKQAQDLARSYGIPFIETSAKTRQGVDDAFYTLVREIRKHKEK
T4 sequence (P50750 whole entry, the tested form may be a part): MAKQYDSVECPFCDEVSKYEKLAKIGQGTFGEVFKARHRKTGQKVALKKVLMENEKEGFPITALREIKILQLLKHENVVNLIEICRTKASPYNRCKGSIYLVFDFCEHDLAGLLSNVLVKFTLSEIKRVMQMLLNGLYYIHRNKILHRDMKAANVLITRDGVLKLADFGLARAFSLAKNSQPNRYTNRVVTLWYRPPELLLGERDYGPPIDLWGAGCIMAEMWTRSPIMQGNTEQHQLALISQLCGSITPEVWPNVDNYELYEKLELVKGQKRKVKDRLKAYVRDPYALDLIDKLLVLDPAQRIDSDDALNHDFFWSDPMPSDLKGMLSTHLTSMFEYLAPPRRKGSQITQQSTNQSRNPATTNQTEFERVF
T3 sequence (P00533 669-1011): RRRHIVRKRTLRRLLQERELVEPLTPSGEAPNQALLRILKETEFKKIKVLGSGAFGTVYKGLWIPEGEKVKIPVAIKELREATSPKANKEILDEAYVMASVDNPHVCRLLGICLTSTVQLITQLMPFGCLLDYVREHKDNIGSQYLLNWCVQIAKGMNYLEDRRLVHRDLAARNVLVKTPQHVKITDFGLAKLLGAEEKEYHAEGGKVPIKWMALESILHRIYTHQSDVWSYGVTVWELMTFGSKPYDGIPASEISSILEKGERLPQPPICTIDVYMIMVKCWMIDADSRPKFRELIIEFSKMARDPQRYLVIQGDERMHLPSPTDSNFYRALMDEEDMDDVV
T2 sequence (P00533 669-1011 T790M/L858R): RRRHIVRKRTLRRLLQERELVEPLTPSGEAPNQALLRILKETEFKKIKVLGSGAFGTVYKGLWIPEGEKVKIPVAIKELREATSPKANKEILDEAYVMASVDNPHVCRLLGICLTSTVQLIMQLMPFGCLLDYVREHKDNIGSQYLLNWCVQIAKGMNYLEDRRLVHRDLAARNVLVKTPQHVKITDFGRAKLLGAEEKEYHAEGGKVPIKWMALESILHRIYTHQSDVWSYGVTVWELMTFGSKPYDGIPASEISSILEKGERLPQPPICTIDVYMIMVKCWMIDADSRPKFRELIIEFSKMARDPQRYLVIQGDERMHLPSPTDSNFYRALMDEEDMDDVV
T1 sequence (P00533 25-1210): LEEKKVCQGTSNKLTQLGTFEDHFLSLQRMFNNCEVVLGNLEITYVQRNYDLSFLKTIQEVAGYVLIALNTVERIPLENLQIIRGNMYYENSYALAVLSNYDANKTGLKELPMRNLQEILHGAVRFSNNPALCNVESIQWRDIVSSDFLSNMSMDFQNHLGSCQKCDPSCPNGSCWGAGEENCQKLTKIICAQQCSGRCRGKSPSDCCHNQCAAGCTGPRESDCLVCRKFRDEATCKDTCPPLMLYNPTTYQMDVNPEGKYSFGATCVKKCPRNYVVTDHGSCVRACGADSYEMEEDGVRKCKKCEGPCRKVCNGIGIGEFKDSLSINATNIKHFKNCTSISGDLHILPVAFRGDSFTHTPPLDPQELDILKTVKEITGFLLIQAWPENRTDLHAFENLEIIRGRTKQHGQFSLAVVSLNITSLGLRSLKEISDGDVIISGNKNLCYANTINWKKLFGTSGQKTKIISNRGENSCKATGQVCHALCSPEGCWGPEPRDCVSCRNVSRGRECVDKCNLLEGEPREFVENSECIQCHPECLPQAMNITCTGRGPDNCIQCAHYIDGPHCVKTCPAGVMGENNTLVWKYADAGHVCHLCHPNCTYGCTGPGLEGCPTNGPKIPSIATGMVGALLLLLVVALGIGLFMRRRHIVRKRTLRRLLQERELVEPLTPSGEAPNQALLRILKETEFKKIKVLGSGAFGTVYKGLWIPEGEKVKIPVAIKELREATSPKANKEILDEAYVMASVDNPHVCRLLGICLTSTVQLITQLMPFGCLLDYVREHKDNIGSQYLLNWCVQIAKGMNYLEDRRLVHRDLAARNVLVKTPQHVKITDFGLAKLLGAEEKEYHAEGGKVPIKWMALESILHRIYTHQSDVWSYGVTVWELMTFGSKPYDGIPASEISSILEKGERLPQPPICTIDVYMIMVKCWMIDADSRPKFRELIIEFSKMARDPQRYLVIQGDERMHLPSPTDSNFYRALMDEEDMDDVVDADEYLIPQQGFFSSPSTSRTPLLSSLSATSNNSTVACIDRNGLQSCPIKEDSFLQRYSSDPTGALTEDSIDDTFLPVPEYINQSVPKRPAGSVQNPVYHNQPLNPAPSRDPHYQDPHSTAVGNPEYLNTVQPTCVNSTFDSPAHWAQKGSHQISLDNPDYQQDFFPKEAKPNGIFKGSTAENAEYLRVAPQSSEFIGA

Compound	GI50 (HEK293 cells)	GI50 (HeLa cells)	Kd (EGFR)	Kd [1]	Kd [2]	Kd [3]	IC50 (KRAS G12C)
C=CC(=O)N[C@@H]1CN(c2nc(Nc3cn(CCOCCOCCOCCOCCNS(=O)(=O)c4ccc(Nc5ncc(Br)c(Nc6cccc(F)c6C(N)=O)n5)cc4)nc3OC)c3ncn(C)c3n2)C[C@H]1F [Compound I-138, 2-[[5-bromo-2-[4-[2-[2-[2-[2-[2-[4-[[2-[(3R,4R)-3-fluoro-4-(prop-2-enoylamino)pyrrolidin-1-yl]-9-methyl-purin-6-yl]amino]-3-methoxy-pyrazol-1-yl]ethoxy]ethoxy]ethoxy]ethoxy]ethylsulfamoyl]anilino]pyrimidin-4-yl]amino]-6-fluoro-benzamide]	> 5000 nM	> 5000 nM	< 50 nM	< 50 nM	< 50 nM	500 to 2500 nM	–
CCc1cnn2c(NCc3ccc(OCCOCCOCCOCCOCCOC/C=C/C(=O)N4CCN(c5nc(OC[C@@H]6CCCN6C)nc6c5CCN(c5cccc7cccc(Cl)c57)C6)C[C@@H]4CC#N)nc3)cc(N3CCCCC3CCO)nc12 (stereo partly drawn) [Compound I-86, 2-[(2S)-4-[7-(8-chloro-1-naphthyl)-2-[[(2S)-1-methylpyrrolidin-2-yl]methoxy]-6,8-dihydro-5H-pyrido[3,4-d]pyrimidin-4-yl]-1-[(E)-4-[2-[2-[2-[2-[2-[[5-[[[3-ethyl-5-[2-(2-hydroxyethyl)-1-piperidyl]pyrazolo[1,5-a]pyrimidin-7-yl]amino]methyl]-2-pyridyl]oxy]ethoxy]ethoxy]ethoxy]ethoxy]ethoxy]but-2-enoyl]piperazin-2-yl]acetonitrile]	500 to 1500 nM	< 500 nM	–	–	–	< 50 nM	100 to 1000 nM
CCc1cnn2c(NCc3ccc(OCCOCCOCCOC4CCN(C/C=C/C(=O)N5CCN(c6nc(OC[C@@H]7CCCN7C)nc7c6CCN(c6cccc8cccc(Cl)c68)C7)C[C@@H]5CC#N)CC4)nc3)cc(N3CCCC[C@H]3CCO)nc12 [Compound I-90, 2-((S)-4-(7-(8-chloronaphthalen-1-yl)-2-(((S)-1-methylpyrrolidin-2-yl)methoxy)-5,6,7,8-tetrahydropyrido [3,4-d]pyrimidin-4-yl)-1-((E)-4-(4-(2-(2-(2-((5-(((3-ethyl-5-((S)-2-(2-hydroxyethyl)piperidin-1-yl)pyrazolo[1,5-a]pyrimidin-7-yl)amino)methyl)pyridin-2-yl)oxy)ethoxy)ethoxy)ethoxy)piperidin-1-yl)but-2-enoyl)piperazin-2-yl)acetonitrile]	< 500 nM	< 500 nM	–	–	–	< 50 nM	< 100 nM
C=CC(=O)N[C@@H]1CN(c2nc(Nc3cn(CCOCCOCCOCCOCCOCCOCCNS(=O)(=O)c4ccc(Nc5ncc(Br)c(Nc6cccc(F)c6C(N)=O)n5)cc4)nc3OC)c3ncn(C)c3n2)C[C@H]1F [Compound I-143, 2-[[5-bromo-2-[4-[2-[2-[2-[2-[2-[2-[2-[4-[[2-[(3R,4R)-3-fluoro-4-(prop-2-enoylamino)pyrrolidin-1-yl]-9-methyl-purin-6-yl]amino]-3-methoxy-pyrazol-1-yl]ethoxy]ethoxy]ethoxy]ethoxy]ethoxy]ethoxy]ethylsulfamoyl]anilino]pyrimidin-4-yl]amino]-6-fluoro-benzamide]	> 5000 nM	> 5000 nM	< 50 nM	< 50 nM	< 50 nM	500 to 2500 nM	–
C=CC(=O)Nc1cc(Nc2nccc(-c3cn(C)c4ccccc34)n2)c(OC)cc1N(C)CCN(C)CCOCCOCCNS(=O)(=O)c1ccc(Nc2ncc(Br)c(Nc3cccc(F)c3C(N)=O)n2)cc1 [Compound I-33, 2-[[5-bromo-2-[4-[2-[2-[2-[2-[5-methoxy-N-methyl-4-[[4-(1-methylindol-3-yl)pyrimidin-2-yl]amino]-2-(prop-2-enoylamino)anilino]ethyl-methyl-amino]ethoxy]ethoxy]ethyl-sulfamoyl]anilino]pyrimidin-4-yl]amino]-6-fluoro-benzamide]	–	–	< 50 nM	< 50 nM	50 to 500 nM	500 to 2500 nM	–
C=CC(=O)Nc1cc(Nc2nccc(-c3cn(C)c4ccccc34)n2)c(OC)cc1N(C)CCN(C)CCOCCOCCOCCOCCOc1ccc(CNc2cc(N3CCCC[C@H]3CCO)nc3c(CC)cnn23)cn1 [Compound I-132]	< 500 nM	< 500 nM	50 to 500 nM	< 50 nM	50 to 500 nM	< 50 nM	–
C=C(F)C(=O)N1CCN(c2nc(OC[C@@H]3CCCN3CCCOCCOCCOCCOCCOCCOCCN(C)C(=O)N3N=C(c4cc(F)ccc4F)S[C@@]3(CCCN)c3ccccc3)nc3c2CCN(c2cccc4cccc(Cl)c24)C3)C[C@@H]1CC#N [Compound I-100, (2S)-2-(3-aminopropyl)-N-[2-[22[2-[2-[2-[2-[3-[(2S)-2-[[7-(8-chloro-1-naphthyl)-4-[(3S)-3-(cyanomethyl)-4-(2-fluoroprop-2-enoyl)piperazin-1-yl]-6,8-dihydro-5H-pyrido[3,4-d]pyrimidin-2-yl]oxymethyl]pyrrolidin-1-yl]propoxy]ethoxy]ethoxy]ethoxy]ethoxy]ethoxy]ethyl]-5-(2,5-difluorophenyl)-N-methyl-2-phenyl-1,3,4-thiadiazole-3-carboxamide]	> 5000 nM	1500 to 5000 nM	–	–	–	–	< 100 nM
CCc1cnn2c(NCc3ccc(OCCN(C)C/C=C/C(=O)N4CCN(c5nc(OC[C@@H]6CCCN6C)nc6c5CCN(c5cccc7cccc(Cl)c57)C6)C[C@@H]4CC#N)nc3)cc(N3CCCC[C@H]3CCO)nc12 [Compound I-91, 2-[(2S)-4-[7-(8-chloro-1-naphthyl)-2-[[(2S)-1-methylpyrrolidin-2-yl]methoxy]-6,8-dihydro-5H-pyrido[3,4-d]pyrimidin-4-yl]-1-[(E)-4-[2-[[5-[[[3-ethyl-5-[(2S)-2-(2-hydroxyethyl)-1-piperidyl]pyrazolo [1,5-a]pyrimidin-7-yl]amino]methyl]-2-pyridyl]oxy]ethyl-methyl-amino]but-2-enoyl]piperazin-2-yl]acetonitrile]	< 500 nM	< 500 nM	–	–	–	–	< 100 nM
CC[C@@H]1C(=O)N(C)c2cnc(Nc3ccc(C(=O)NCCOCCOCCN(C)C/C=C/C(=O)N4CCN(c5nc(OC[C@@H]6CCCN6C)nc6c5CCN(c5cccc7cccc(Cl)c57)C6)C[C@@H]4CC#N)cc3OC)nc2N1C1CCCC1 [Compound I-107, N-[2-[2-[2-[[(E)-4-[(2S)-4-[7-(8-chloro-1-naphthyl)-2-[[(2S)-1-methylpyrrolidin-2-yl]methoxy]-6,8-dihydro-SH-pyrido[3,4-d]pyrimidin-4-yl]-2-(cyanomethyl)piperazin-1-yl]-4-oxo-but-2-enyl]-methyl-amino]ethoxy]ethoxy]ethyl]-4-[[(7R)-8-cyclopentyl-7-ethyl-5-methyl-6-oxo-7H-pteridin-2-yl]amino]-3-methoxy-benzamide]	< 500 nM	< 500 nM	–	–	–	–	< 100 nM
CCc1cnn2c(NCc3ccc(OCCOCCOCCN(C)C/C=C/C(=O)N4CCN(c5nc(OC[C@@H]6CCCN6C)nc6c5CCN(c5cccc7cccc(Cl)c57)C6)C[C@@H]4CC#N)nc3)cc(N3CCCC[C@H]3CCO)nc12 [Compound I-89]	500 to 1500 nM	< 500 nM	–	–	–	–	< 100 nM
